US20170368134A1, “PROTEASOME INHIBITORS FOR TREATING A DISORDER RELATED TO AN ACCUMULATION OF NON-DEGRADED ABNORMAL PROTEIN OR A CANCER” (UNIVERSITÉ D'AIX-MARSEILLE, priority 2015, published 2017)
Square brackets hold non-standard residues; d marks the D form. Peptide text beside a SMILES is read from it. * marks the point of attachment. Nva = CCC[C@H](N)C(=O)O; Cbz = O=C(OCc1ccccc1)*; CH2F = FC*

Experiments:
[1] = system: progerin; assay: Western blot of progerin levels in HGPS fibroblasts; assay type: cell-based, human; conditions: HGPS fibroblasts; for progerin clearance / suppression of progerin accumulation compared with MG132: 10 μM, 48 h (FIG. 1C); for effect on MG132-induced progerin clearance (co-treatment with MG132): 48 h, added together with MG132; for progerin expression levels, inhibitor alone: alone at high doses
Method: HGPS fibroblasts (AG01972: person, AG11498: person) were obtained from the Coriell Cell Repository. Cells were cultured in Dulbecco's modified Eagle's medium (Life Technologies) supplemented with 15% fetal bovine serum (Life Technologies), 2 mM L-glutamine (Life Technologies) and 1× penicillin-streptomycin (Life Technologies) at 37° C. in a humidified atmosphere containing 5% CO2. […]
(§1) Total fibroblast proteins were extracted in 200 μL of NP40 Cell Lysis buffer (Invitrogen, Carlsbad, Calif.) containing Protease and Phosphatase Inhibitor Cocktail (Thermo Scientific). Alternatively, cells were lysed with urea (8 M urea, 5 mM dithiothreitol, 150 mM NaCl, 50 mM Tris-Cl pH 7.5, protease and phosphatase Inhibitor Cocktail (Thermo Scientific)). Cells were sonicated twice (30 sec each), incubated at 4° C. for 30 minutes and then centrifuged at 10,000 g for 10 minutes. Protein concentration was evaluated with the bicinchoninic acid technique (Pierce BCA Protein Assay Kit), absorbance at 562 nm is measured using nanodrop 1000 (Thermo Fisher Scientific Inc.) Equal amounts of proteins (40 μg) were loaded onto 10% Tis-Glycine gel (Criterion™ XT precast gel) using XT Tricine running Buffer (Biorad, USA). After electrophoresis, gels were electro transferred onto nitrocellulose membranes or Immobilon-FL polyvinylidene fluoride membranes (Millipore), blocked in Odyssey Blocking Buffer diluted 1:1 in PBS for 1 hour at room temperature, and incubated overnight at 4° C. or 2 hours at room temperature with various primary antibodies. Blots were washed with TBS-T buffer [20 mM tris (pH 7.4), 150 mM NaCl, and 0.05% Tween 20] and incubated with 1:10,000 IR-Dye 800-conjugated secondary donkey anti-goat or IR-Dye 700-conjugated secondary anti-mouse antibodies (LI-COR Biosciences) in Odyssey blocking buffer (LI-COR Biosciences). For IR-Dye 800 and IR-Dye 700 detection, an Odyssey Infrared Imaging System (LI-COR Biosciences) was used. GAPDH, α-tubulin or β-actin were used as a total cellular protein loading control.

[2] = target: T1, proteasome (Homo sapiens, UniProt P28072+P28074+Q99436); assay: Proteasome-Glo cell-based proteasome activities (chymotrypsin-like, trypsin-like, caspase-like) in HGPS cells; conditions: HGPS cells treated with the autophagy inhibitor
T1 construct: The proteasome activities were determined in HGPS and control cells; endogenous in cells; host or cells: HGPS fibroblasts (AG01972, AG11498, 5968)
T1 sequence (P28074 60-263): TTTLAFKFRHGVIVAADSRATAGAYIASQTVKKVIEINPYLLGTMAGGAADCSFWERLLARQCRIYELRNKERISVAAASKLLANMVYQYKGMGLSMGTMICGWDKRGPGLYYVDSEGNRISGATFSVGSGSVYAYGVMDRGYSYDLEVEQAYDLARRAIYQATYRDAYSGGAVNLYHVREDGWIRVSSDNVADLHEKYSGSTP
T1 sequence (Q99436 44-277): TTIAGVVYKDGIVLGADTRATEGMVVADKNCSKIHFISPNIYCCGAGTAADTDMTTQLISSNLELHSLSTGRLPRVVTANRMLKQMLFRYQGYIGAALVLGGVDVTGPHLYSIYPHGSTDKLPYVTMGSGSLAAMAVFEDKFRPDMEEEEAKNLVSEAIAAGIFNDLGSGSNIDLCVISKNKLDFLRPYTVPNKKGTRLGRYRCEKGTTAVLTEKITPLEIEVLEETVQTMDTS
T1 sequence (P28072 1-239): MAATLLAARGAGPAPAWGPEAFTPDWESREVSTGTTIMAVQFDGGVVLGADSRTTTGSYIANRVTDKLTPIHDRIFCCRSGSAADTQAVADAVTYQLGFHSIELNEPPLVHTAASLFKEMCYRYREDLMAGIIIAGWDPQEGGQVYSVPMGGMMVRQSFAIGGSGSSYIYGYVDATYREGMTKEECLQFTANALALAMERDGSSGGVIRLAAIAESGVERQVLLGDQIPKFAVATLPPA
Method: The proteasome activities were determined in HGPS and control cells by using the Proteasome-Glo™ 3-Substrate Cell-Based Assay System (Promega) that allows to measure the chymotrypsin-like, trypsin-like or caspase-like protease activity associated with the proteasome complex in cultured cells. The Proteasome-Glo™ Cell-Based Reagents each contain a specific luminogenic proteasome substrate. These peptide substrates are Suc-LLVY amino luciferin (Succinyl-leucine-leucine-valine-tyro sine-amino luciferin), Z-LRR-amino luciferin (Z-leucine-arginine-arginine-aminoluciferin) and Z-nLPnLD-amino luciferin (Z-norleucine-proline-norleucine-aspartate-amino luciferin) for the chymotrypsin-like, trypsin-like and caspase-like activities, respectively. Cells (10,000 cells/well) were cultured in 100 μl/well in a 96-well plate at 37° C., 5% CO2. The plate was allowed to equilibrate to 22° C. before 100 μl/well of substrate and luciferin detection reagent was added. The contents of the wells were mixed at 700 rpm using a plate shaker for 2 minutes and incubated at room temperature for 10 minutes. Following cleavage by the proteasome, the substrate for luciferase (amino luciferin) is released, allowing the luciferase reaction to proceed and produce light. Luminescence is determined as relative light units (RLUs) using a GloMax-Multi Detection System: Luminometer (Promega, USA).

[3] = system: SRSF-1; assay: Western blot of SRSF-1 in HGPS fibroblasts; assay type: cell-based, human; conditions: for SRSF-1 levels, autophagy inhibitor alone: HGPS fibroblasts, chloroquine 50 μM, bafilomycin A1 100 nM
Method: as §1

| SMILES | progerin clearance / suppression of progerin accumulation compared with MG132 [1] | effect on MG132-induced progerin clearance (co-treatment with MG132) [1] | further results |
| --- | --- | --- | --- |
| CCC[C@@H](C=O)NC(=O)[C@H](CC(C)C)NC(=O)[C@H](CC(C)C)NC(=O)OCc1ccccc1 [MG115, Z-Leu-Leu-Nva-H] (Cbz-Leu-Leu-[Nva]-aldehyde) | the same efficacy in suppressing progerin accumulation |  |  |
| CC(C)C[C@H](NC(=O)[C@H](CC(C)C)NC(=O)[C@H](CC(C)C)NC(=O)OCc1ccccc1)B(O)O [MG262, Z-Leu-Leu-Leu-B(OH)2] | less effective |  |  |
| CO/C1=C\C(C)=C\[C@@H](C)[C@@H](O)[C@@H](C)C/C(C)=C/C=C/[C@H](OC)[C@@H]([C@@H](C)[C@@H](O)[C@H](C)[C@@]2(O)C[C@@H](O)[C@H](C)[C@@H](C(C)C)O2)OC1=O [bafilomycin A1] |  | partially inhibited the effect of MG132 | progerin expression levels, inhibitor alone [1]: reduced expression levels of progerin; three proteasome activities [2]: not modified; SRSF-1 levels, autophagy inhibitor alone [3]: decrease SRSF-1 levels |
| CC(C)C[C@H](NC(=O)[C@H](Cc1ccccc1)NC(=O)c1cnccn1)B(O)O [bortezomib] | do not induce progerin clearance |  |  |
| CC(C)C[C@H](NC(=O)[C@H](CCc1ccccc1)NC(=O)CN1CCOCC1)C(=O)N[C@@H](Cc1ccccc1)C(=O)N[C@@H](CC(C)C)C(=O)[C@@]1(C)CO1 [carfilzomib] | do not induce progerin clearance |  |  |
| CC[C@H](C)[C@H](NC(=O)[C@H](CCC(=O)OC)NC(=O)[C@@H](NC(=O)OCc1ccccc1)C(C)C)C(=O)N[C@@H](CC(=O)OC)C(=O)CF [caspase-6 inhibitor, Z-VEID-FMK] (Cbz-VE(OMe)ID(OMe)-CH2F) |  | progerin level remained below the HGPS control |  |
| CCN(CC)CCCC(C)Nc1ccnc2cc(Cl)ccc12 (stereo not drawn) [chloroquine] |  |  | progerin expression levels, inhibitor alone [1]: reduced expression levels of progerin; three proteasome activities [2]: not modified; SRSF-1 levels, autophagy inhibitor alone [3]: decrease SRSF-1 levels |
| CCC(=C/[C@H](C)C/C=C/C(C)=C/[C@@H](C)C(=O)[C@@H](C)[C@H](O)[C@@H](C)C/C(C)=C/C(=O)O)/C=C/[C@@H]1OC(=O)C=C[C@@H]1C [leptomycin B] |  | does not inhibit MG132 induced progerin clearance |  |
| COC(=O)C[C@H](NC(=O)[C@H](C)NC(=O)[C@@H](NC(=O)OCc1ccccc1)C(C)C)C(=O)CF [pan-caspase inhibitor, Z-VAD-FMK] (Cbz-Val-Ala-Asp(OMe)-CH2F) |  | increase of progerin that slightly reaches the control levels | SRSF-1 protein expression, added during MG132 treatment ([3]; HGPS cells, co-treatment with MG132): rescue of SRSF-1 protein expression |
